Laboratory results as given in ChEMBL document CHEMBL5385913, “First-in-Class Dual EZH2-HSP90 Inhibitor Eliciting Striking Antiglioblastoma Activity In Vitro and In Vivo” (J Med Chem, 2024).
The source made the active and inactive calls. No cut-off for these calls is given here.

What was measured:
GBM = assay: Antitumor activity against TMZ-resistant patient-derived human GBM cells xenografted in NOD.CB17-Prkdcscid/NCrCrl mouse assessed as reduction in tumor growth at 5 to 15 mg/kg, ip treated twice per week in presence of Tazemetostat; assay type: functional, organism-based; conditions: dose 5-15 mg/kg
[1] = Toxicity in NOD.CB17-Prkdcscid/NCrCrl mouse xenografted with TMZ-resistant patient-derived human GBM cells at 5 to 15 mg/kg, ip treated twice per week in presence of Tazemetostat; assay type: organism-based; conditions: in vivo, dose 5-15 mg/kg

CC(C)c1cc(-c2n[nH]c(=O)n2-c2ccc3c(ccn3C)c2)c(O)cc1O [GANETESPIB]
Activity (GBM): Active
Activity [1]: Toxic
